Source: patent US20080009418A1, “Selective Inhibitors” (Alchemia LTD., priority 2004, published 2008)

Experiments:
Human opioid (ORL1) = molecular target: T1, Human opioid (ORL1) (Homo sapiens, UniProt P41146); test: Radioligand binding, human opioid ORL1 membranes, FlashPlate, [125I]-Nociceptin; settings: compound at 10 μM, human ORL1 membranes
T1 construct: purchased Perkin Elmer Biosignal
Method in brief: (§1)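 Cloned human receptor membranes were coated onto FlashPlate wells and incubated with radioligand and compound (added from a 0.5 mM DMSO daughter plate) for 1 hour at room temperature in the dark. Scintillation counting gave percent inhibition, with DMSO defining total and reference ligand defining non-specific binding.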

Mouse urotensin (mUR2) = molecular target: T2, Mouse urotensin (mUR2) (Mus musculus, UniProt Q8VIH9); test: Radioligand binding, mouse urotensin mUR2 membranes, FlashPlate, [125I]-Urotensin II; settings: compound at 10 μM
T2 construct: purchased Perkin Elmer Biosignal
T2 sequence (Q8VIH9 1-385): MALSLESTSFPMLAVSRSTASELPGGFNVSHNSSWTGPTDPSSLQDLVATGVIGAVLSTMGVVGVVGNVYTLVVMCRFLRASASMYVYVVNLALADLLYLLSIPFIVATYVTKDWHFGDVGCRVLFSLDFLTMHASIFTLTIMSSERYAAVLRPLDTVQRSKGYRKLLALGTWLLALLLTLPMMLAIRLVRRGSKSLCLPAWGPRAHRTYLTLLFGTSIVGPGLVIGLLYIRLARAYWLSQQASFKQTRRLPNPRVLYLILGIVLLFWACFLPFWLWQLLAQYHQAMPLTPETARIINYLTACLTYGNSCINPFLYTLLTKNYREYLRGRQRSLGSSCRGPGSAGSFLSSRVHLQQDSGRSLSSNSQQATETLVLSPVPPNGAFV
Method in brief: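 Cloned mouse urotensin (mUR2) receptor membranes from Perkin Elmer Biosignal were immobilized in FlashPlate microplates using a proprietary coating. Each well got 19.5 μl buffer, then 0.5 μl of DMSO, reference ligand, or compound. Adding 5 μl of [125I]-Urotensin II, diluted to 5× final concentration in binding buffer, started binding. Plates were sealed with TopSeal-A and incubated 1 hour at room temperature in the dark. Wells were counted for 30 seconds each on a TopCount after a 60-second delay, and percentage inhibition was calculated.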

Human δ-opioid (DOP) = molecular target: T3, Human δ-opioid (DOP) (Homo sapiens, UniProt P41143); test: Radioligand binding, human δ-opioid (DOP) membranes, FlashPlate, [3H]-Bremazocine; settings: compound at 10 μM
T3 construct: purchased Perkin Elmer Biosignal
T3 sequence (P41143 whole entry): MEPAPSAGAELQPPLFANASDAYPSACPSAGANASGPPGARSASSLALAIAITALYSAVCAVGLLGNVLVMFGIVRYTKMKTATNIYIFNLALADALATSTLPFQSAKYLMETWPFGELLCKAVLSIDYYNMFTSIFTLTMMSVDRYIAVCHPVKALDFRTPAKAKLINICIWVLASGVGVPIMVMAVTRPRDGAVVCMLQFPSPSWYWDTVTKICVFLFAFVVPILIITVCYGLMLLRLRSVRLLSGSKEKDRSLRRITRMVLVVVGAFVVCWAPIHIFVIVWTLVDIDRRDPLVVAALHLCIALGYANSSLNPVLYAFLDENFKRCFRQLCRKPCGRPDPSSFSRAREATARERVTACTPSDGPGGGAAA
Method in brief: as §1

Human Melanocortin (MC4) = molecular target: T4, Human Melanocortin (MC4) (Homo sapiens, UniProt P32245); test: Radioligand binding, human melanocortin MC4 membranes, FlashPlate, [125I]-NDP-αMSH; settings: compound at 10 μM
T4 construct: purchased Perkin Elmer Biosignal
T4 sequence (P32245 whole entry): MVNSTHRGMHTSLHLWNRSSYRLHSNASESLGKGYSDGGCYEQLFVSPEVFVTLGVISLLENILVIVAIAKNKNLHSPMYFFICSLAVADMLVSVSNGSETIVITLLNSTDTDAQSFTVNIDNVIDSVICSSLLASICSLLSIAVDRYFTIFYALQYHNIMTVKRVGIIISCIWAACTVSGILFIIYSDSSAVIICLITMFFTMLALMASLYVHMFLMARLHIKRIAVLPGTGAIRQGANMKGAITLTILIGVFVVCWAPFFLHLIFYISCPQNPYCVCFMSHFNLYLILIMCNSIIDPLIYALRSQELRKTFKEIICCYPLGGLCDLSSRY
Method in brief: as §1

Human μ-opioid (MOP) = molecular target: T5, Human μ-opioid (MOP) (Homo sapiens, UniProt P35372); test: Radioligand binding, human μ-opioid (MOP) membranes, FlashPlate, [3H]-Naloxone; settings: compound at 10 μM
T5 construct: purchased Perkin Elmer Biosignal
T5 sequence (P35372 whole entry): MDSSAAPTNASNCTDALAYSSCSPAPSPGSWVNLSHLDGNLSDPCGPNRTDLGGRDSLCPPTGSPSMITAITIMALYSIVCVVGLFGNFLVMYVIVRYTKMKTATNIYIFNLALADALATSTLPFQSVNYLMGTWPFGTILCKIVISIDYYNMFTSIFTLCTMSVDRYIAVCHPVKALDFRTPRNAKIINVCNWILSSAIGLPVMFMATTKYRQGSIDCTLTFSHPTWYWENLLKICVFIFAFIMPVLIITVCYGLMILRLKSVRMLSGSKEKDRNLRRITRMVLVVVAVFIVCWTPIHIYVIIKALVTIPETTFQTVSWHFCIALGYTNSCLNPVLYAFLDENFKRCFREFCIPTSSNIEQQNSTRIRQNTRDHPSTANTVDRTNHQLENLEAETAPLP
Method in brief: as §1

[1] = molecular target: T6, Human neuropeptide Y (NPY-Y1) (Homo sapiens, UniProt P25929); test: Radioligand binding, human neuropeptide Y NPY-Y1 membranes, FlashPlate, [125I]-PYY; settings: compound at 10 μM, human NPY-Y1 membranes
T6 construct: purchased Perkin Elmer Biosignal
T6 sequence (P25929 1-384): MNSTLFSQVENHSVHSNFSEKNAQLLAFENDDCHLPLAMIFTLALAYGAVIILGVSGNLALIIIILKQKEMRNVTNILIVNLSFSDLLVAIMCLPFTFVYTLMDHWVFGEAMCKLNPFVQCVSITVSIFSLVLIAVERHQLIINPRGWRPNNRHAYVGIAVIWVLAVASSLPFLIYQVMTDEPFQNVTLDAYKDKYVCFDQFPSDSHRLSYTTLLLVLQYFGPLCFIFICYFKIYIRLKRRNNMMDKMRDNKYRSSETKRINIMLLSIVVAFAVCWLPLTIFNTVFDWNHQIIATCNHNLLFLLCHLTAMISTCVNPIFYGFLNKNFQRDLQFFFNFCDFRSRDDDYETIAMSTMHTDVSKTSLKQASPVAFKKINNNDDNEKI
Method in brief: as §1

Human melanocortin (MC5) = molecular target: T7, Human melanocortin (MC5) (Homo sapiens, UniProt P33032); test: Radioligand binding, human melanocortin MC5 membranes, FlashPlate, [125I]-NDP-αMSH; settings: compound at 10 μM
T7 construct: purchased Perkin Elmer Biosignal
T7 sequence (P33032 whole entry): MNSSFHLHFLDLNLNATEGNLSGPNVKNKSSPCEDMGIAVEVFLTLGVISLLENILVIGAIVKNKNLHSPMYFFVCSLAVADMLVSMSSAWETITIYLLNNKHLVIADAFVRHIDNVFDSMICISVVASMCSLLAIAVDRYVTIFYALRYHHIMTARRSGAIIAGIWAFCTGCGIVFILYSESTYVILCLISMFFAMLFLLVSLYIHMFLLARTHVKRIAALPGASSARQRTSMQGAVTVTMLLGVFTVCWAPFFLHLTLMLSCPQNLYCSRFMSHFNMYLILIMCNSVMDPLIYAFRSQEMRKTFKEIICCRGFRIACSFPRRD
Method in brief: as §1

Human κ-Opioid (KOP) = molecular target: T8, Human κ-Opioid (KOP) (Homo sapiens, UniProt P41145); test: Radioligand binding, human κ-opioid (KOP) membranes, filtration, [3H]-Diprenorphine; settings: compound at 10 μM
T8 construct: purchased Perkin Elmer Biosignal
T8 sequence (P41145 whole entry): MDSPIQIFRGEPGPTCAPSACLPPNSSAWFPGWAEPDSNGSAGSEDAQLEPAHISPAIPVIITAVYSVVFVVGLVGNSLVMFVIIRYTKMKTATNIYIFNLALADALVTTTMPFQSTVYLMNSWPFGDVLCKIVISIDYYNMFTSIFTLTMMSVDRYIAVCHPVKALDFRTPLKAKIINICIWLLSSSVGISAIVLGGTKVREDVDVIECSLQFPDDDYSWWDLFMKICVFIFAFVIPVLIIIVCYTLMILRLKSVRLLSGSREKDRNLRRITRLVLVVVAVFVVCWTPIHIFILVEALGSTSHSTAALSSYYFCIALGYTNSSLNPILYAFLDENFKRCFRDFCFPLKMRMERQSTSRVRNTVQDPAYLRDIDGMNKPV
Method in brief: (§2)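 Percent inhibition of radioligand binding measured on recombinant human membranes: NK1 with [125I]-Substance P, KOP with [3H]-Diprenorphine. Incubation 1 h at room temperature, then harvest onto 0.3% PEI-soaked filters, cold Tris-HCl pH 7.4 washes and scintillation counting; non-specific binding from reference ligand wells.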

Human Melanocortin (MC3) = molecular target: T9, Human Melanocortin (MC3) (Homo sapiens, UniProt P41968); test: Radioligand binding, human melanocortin MC3 membranes, FlashPlate, [125I]-NDP-αMSH; settings: compound at 10 μM
T9 construct: purchased Perkin Elmer Biosignal
T9 sequence (P41968 whole entry): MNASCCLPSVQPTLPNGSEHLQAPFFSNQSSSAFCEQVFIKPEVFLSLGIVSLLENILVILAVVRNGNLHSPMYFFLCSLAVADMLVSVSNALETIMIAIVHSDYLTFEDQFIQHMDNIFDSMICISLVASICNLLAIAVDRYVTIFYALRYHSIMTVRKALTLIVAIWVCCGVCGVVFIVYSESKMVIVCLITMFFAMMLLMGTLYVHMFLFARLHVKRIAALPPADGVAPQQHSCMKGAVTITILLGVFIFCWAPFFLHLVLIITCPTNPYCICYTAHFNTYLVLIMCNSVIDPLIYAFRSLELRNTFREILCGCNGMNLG
Method in brief: as §1

Human neurokinin (NK1) = molecular target: T10, Human neurokinin (NK1) (Homo sapiens, UniProt P25103); test: Radioligand binding, human neurokinin NK1 membranes, filtration, [125I]-Substance P; settings: compound at 10 μM
T10 construct: purchased Perkin Elmer Biosignal
T10 sequence (P25103 whole entry): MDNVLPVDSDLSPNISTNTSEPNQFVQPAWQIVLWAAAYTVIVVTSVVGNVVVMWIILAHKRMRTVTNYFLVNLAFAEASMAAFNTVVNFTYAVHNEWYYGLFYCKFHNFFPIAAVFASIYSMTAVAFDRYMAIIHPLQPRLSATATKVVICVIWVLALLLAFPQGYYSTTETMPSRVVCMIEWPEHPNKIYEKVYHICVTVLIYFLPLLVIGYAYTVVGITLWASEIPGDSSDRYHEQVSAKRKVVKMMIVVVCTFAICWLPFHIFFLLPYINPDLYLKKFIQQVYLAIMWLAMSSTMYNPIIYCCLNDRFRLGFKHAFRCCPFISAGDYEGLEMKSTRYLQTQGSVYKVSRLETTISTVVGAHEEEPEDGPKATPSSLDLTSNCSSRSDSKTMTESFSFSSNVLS
Method in brief: as §2

[2] = molecular target: T11, Human melanin-concentrating hormone (MCH1) (Homo sapiens, UniProt Q99705); test: Radioligand binding, human melanin-concentrating hormone MCH1 membranes, FlashPlate, [125I]-S36057; settings: compound at 10 μM
T11 construct: purchased Perkin Elmer Biosignal
T11 sequence (Q99705 whole entry): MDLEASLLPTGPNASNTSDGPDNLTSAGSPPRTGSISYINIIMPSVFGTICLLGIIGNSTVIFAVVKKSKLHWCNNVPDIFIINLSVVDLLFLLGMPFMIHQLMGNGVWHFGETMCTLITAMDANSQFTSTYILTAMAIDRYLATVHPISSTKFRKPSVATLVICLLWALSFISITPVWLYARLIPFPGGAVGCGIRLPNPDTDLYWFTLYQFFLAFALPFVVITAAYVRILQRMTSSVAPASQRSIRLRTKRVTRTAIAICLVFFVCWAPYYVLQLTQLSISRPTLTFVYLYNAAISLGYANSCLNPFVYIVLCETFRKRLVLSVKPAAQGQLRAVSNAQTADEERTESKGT
Method in brief: as §1

T1 sequence (P41146 whole entry): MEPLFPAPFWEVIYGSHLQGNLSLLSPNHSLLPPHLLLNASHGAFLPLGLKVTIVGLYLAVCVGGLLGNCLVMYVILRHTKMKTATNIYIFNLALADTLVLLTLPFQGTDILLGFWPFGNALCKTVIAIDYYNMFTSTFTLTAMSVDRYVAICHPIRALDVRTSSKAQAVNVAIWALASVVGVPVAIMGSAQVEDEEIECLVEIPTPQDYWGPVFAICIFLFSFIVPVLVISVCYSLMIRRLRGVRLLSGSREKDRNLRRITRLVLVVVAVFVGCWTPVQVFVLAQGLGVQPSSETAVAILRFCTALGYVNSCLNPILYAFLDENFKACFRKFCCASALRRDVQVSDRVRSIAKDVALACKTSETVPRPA

For `COC[C@H]1OC(OCCc2ccccc2)[C@H](NC(=O)CCNC(=N)N)[C@@H](OCc2ccc3ccccc3c2)[C@@H]1O` (stereo partly shown) [compound 45], the “A10 radioligand binding inhibition” value (Human opioid (ORL1)) was “− (“−” indicates less than 50% inhibition at 10 μM)”, the “A11 radioligand binding inhibition” value (Mouse urotensin (mUR2); mouse urotensin mUR2 membranes) was “− (“−” indicates less than 50% inhibition at 10 μM)” and the “A1 radioligand binding inhibition” value (Human δ-opioid (DOP); human δ-opioid (DOP) membranes) was “− (“−” indicates less than 50% inhibition at 10 μM)”. For the same molecule, the “A4 radioligand binding inhibition” value (Human Melanocortin (MC4); human melanocortin MC4 membranes) was “+ (“+” indicates greater than 50% inhibition at 10 μM)”, the “A7 radioligand binding inhibition” value (Human μ-opioid (MOP); human μ-opioid (MOP) membranes) was “− (“−” indicates less than 50% inhibition at 10 μM)” and the “A9 radioligand binding inhibition” value [1] was “− (“−” indicates less than 50% inhibition at 10 μM)”. For the same molecule, the “A5 radioligand binding inhibition” value (Human melanocortin (MC5); human melanocortin MC5 membranes) was “− (“−” indicates less than 50% inhibition at 10 μM)”, the “A2 radioligand binding inhibition” value (Human κ-Opioid (KOP); human κ-opioid (KOP) membranes) was “− (“−” indicates less than 50% inhibition at 10 μM)” and the “A3 radioligand binding inhibition” value (Human Melanocortin (MC3); human melanocortin MC3 membranes) was “− (“−” indicates less than 50% inhibition at 10 μM)”. The “A8 radioligand binding inhibition” value (Human neurokinin (NK1); human neurokinin NK1 membranes) was “+ (“+” indicates greater than 50% inhibition at 10 μM)” and the “A6 radioligand binding inhibition” value ([2]; human MCH1 membranes) was “− (“−” indicates less than 50% inhibition at 10 μM)”.

In the case of `NCCC(=O)N[C@H]1C(OCc2ccc3ccccc3c2)O[C@H](COCc2ccc3ccccc3c2)[C@@H](O)[C@@H]1OCc1ccccc1` (stereo partly shown) [compound 449], the “A10: inhibition of radioligand binding” value (Human opioid (ORL1); [125I]-Nociceptin, 10 µM) is reported as “+ (“+” indicates greater than 50% inhibition at 10 μM)”, the “A11: inhibition of radioligand binding” value (Mouse urotensin (mUR2); [125I]-Urotensin II, mouse mUR2 membranes) is reported as “− (“−” indicates less than 50% inhibition at 10 μM)” and the “A1: inhibition of radioligand binding” value (Human δ-opioid (DOP); [3H]-Bremazocine, human DOP membranes) is reported as “− (“−” indicates less than 50% inhibition at 10 μM)”. The “A4: inhibition of radioligand binding” value (Human Melanocortin (MC4); [125I]-NDP-αMSH, human MC4 membranes) was “+ (“+” indicates greater than 50% inhibition at 10 μM)”, the “A7: inhibition of radioligand binding” value (Human μ-opioid (MOP); [3H]-Naloxone, human MOP membranes) was “− (“−” indicates less than 50% inhibition at 10 μM)” and the “A9: inhibition of radioligand binding” value ([1]; [125I]-PYY) was “− (“−” indicates less than 50% inhibition at 10 μM)”. For the same molecule, the “A5: inhibition of radioligand binding” value (Human melanocortin (MC5); [125I]-NDP-αMSH, human MC5 membranes) was “+ (“+” indicates greater than 50% inhibition at 10 μM)”, the “A2: inhibition of radioligand binding” value (Human κ-Opioid (KOP); [3H]-Diprenorphine, human KOP membranes) was “− (“−” indicates less than 50% inhibition at 10 μM)” and the “A3: inhibition of radioligand binding” value (Human Melanocortin (MC3); [125I]-NDP-αMSH, human MC3 membranes, 10 µM) was “+ (“+” indicates greater than 50% inhibition at 10 μM)”. For the same molecule, the “A8: inhibition of radioligand binding” value (Human neurokinin (NK1); [125I]-Substance P, human NK1 membranes) was “+ (“+” indicates greater than 50% inhibition at 10 μM)” and the “A6: inhibition of radioligand binding” value ([2]; [125I]-S36057, human MCH1 membranes, 10 µM) was “+ (“+” indicates greater than 50% inhibition at 10 μM)”.
